# Measured values published in US20230060425A1, “FUSED BICYCLIC HETEROCYCLE DERIVATIVES AS PESTICIDES” (Bayer Aktiengesellschaft, priority 2019, published 2023).
# Like-named read-outs stand apart in the source and are kept apart here.
# Legend:
# Assay type in all cases: in vivo
# [1] = tested on: Rhipicephalus sanguineus; test: Rhipicephalus sanguineus in vitro contact test with adult brown dog ticks; conditions: application rate 5 μg/cm^2; after 48 h; ticks dead or moribund
# Method: Rhipicephalus sanguineus—In Vitro Contact Tests with Adult Brown Dog Ticks
# For the coating of the test tubes, 9 mg of active compound are first dissolved in 1 ml of acetone p.a. and then diluted to the desired concentration with acetone p.a. 250 μl of the solution are distributed homogeneously on the inner walls and the base of a 25 ml glass tube by turning and rocking on an orbital shaker (rocking rotation at 30 rpm for 2 h). With 900 ppm of active compound solution and internal surface area 44.7 cm^2, given homogeneous distribution, an area-based dose of 5 μg/cm^2 is achieved.
# After the solvent has evaporated off, the tubes are populated with 5-10 adult dog ticks (Rhipicephalus sanguineus), sealed with a perforated plastic lid and incubated in a horizontal position in the dark at room temperature and ambient humidity. After 48 h, efficacy is determined. To this end, the ticks are knocked to the base of the tube and incubated on a hotplate at 45-50° C. for not more than 5 min. Ticks which remain motionless on the base or move in such an uncoordinated manner that they are unable to deliberately avoid the heat by climbing upwards are considered to be dead or moribund.
# An efficacy of 100% means that all the ticks were dead or moribund. 0% efficacy means that none of the ticks were harmed.
# [2] = tested on: Myzus persicae; test: Myzus persicae oral test; conditions: 120 h, application rate 4 ppm, after 5 days, read-out: efficacy
# In short: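 Aphid feeding test: compound dissolved in acetone, diluted with water and mixed with IPL41 insect medium plus sugar, offered through parafilm to a mixed population of green peach aphids. Mortality scored after 5 days as % efficacy (100% = all aphids dead, 0% = none dead).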
# [3] = tested on: Phaedon cochleariae; test: Phaedon cochleariae spray test; conditions: foliar, 168 h, application rate 100 g/ha, Chinese cabbage leaf discs, after 7 days, read-out: efficacy
# In short: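 Chinese cabbage leaf discs sprayed with compound formulated in acetone/DMF and emulsifier-containing water, then infested with mustard beetle larvae after drying. Efficacy read after 7 days as % larvae killed.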
# [4] = tested on: Spodoptera frugiperda; test: Spodoptera frugiperda spray test; conditions: foliar, 168 h, application rate 100 g/ha, maize leaf discs, after 7 days, read-out: efficacy
# Method: Spodoptera frugiperda—Spray Test
# (§1) Solvent: • 78.0 parts by weight of acetone • 1.5 parts by weight of dimethylformamide
# (§2) Emulsifier: alkylaryl polyglycol ether
# To produce further test concentrations, the formulation is diluted with emulsifier-containing water.
# After 7 days, the efficacy in % is determined. 100% means that all the caterpillars have been killed; 0% means that no caterpillar has been killed.
# [5] = tested on: Myzus persicae; test: Myzus persicae spray test (MYZUPE), comparative; conditions: 120 h, 5 dat, read-out: % Efficacy
# Method: Myzus persicae—Spray Test (MYZUPE)
# as §1, §2
# (§3) To produce a suitable active compound preparation, 1 part by weight of active compound is dissolved using the stated parts by weight of solvent and made up with water containing an emulsifier concentration of 1000 ppm until the desired concentration is attained. To produce further test concentrations, the formulation is diluted with emulsifier-containing water.
# Discs of Chinese cabbage leaves (Brassica pekinensis) infested by all stages of the green peach aphid (Myzus persicae) are sprayed with an active compound preparation of the desired concentration.
# (§4) After the desired period of time, the efficacy in % is determined. 100% means that all the aphids have been killed; 0% means that no aphids have been killed.
# [6] = tested on: Spodoptera frugiperda; test: Spodoptera frugiperda spray test (SPODFR), comparative; conditions: 168 h, 0.8 g of ai/ha, 7 dat, read-out: % Efficacy
# Method: Spodoptera frugiperda—Spray Test (SPODFR)
# as §1, §2, §3
# Leaf discs of maize (Zea mays) are sprayed with an active compound formulation of the desired concentration and, after drying, populated with caterpillars of the armyworm (Spodoptera frugiperda).
# After the desired period of time, the efficacy in % is determined. 100% means that all the caterpillars have been killed; 0% means that no caterpillar has been killed.
# [7] = tested on: Myzus persicae; test: Myzus persicae drench test (MYZUPE D); conditions: soil, 240 h, 10 dat, read-out: % Efficacy
# Method: Myzus persicae—Drench Test (MYZUPE D)
# Solvent: 7 parts by weight of dimethylformamide
# Emulsifier: 2 part by weight of alkylaryl polyglycol ether
# To produce a suitable active compound preparation, 1 part by weight of active compound is mixed with the specified amounts of solvent and emulsifier, and the concentrate is diluted with water to the desired concentration, it being necessary to include the volume of soil which is drenched in the calculation. It should be ensured that a concentration of 40 ppm of emulsifier in the soil is not exceeded. To produce further test concentrations, water is used for dilution.
# Savoy cabbage (Brassica oleracea) in pots with soil and infested by all stages of the green peach aphid (Myzus persicae) is watered with an active compound preparation of the desired concentration.
# as §4
# [8] = tested on: Heliothis armigera; test: Heliothis armigera test (HELIAR S); conditions: Helicoverpa armigera, 6 dai, read-out: % Efficacy
# Method: Heliothis armigera Test (HELIAR S)
# (§5) Solvent: 14 parts by weight of dimethylformamide
# (§6) Emulsifier: 2 parts by weight of alkylaryl polyglycol ether
# (§7) To produce a suitable active compound formulation, 1 part by weight of active compound is dissolved with the stated parts by weight of solvent and emulsifier and made up to the desired concentration with water. To produce further test concentrations, water is used for dilution. In the event that addition of ammonium salts or/and penetrants (rapeseed oil methyl ester) is required, these are each pipetted in at a concentration of 1000 ppm after the finished formulation solution has been diluted.
# Cotton plants (Gossypium hirsutum) are sprayed with an active compound formulation of the desired concentration and, in each case after 12 and 19 days, populated with 5 caterpillars (L2) of the cotton bollworm (Heliothis armigera).
# The kill is determined 6 days after the infection. 100% means that all the caterpillars have been killed and 0% means that none of the caterpillars have been killed.
# [9] = tested on: Phaedon cochleariae; test: Phaedon cochleariae test on cabbage plants (PHAECO S); conditions: 6 dai, read-out: % Efficacy
# Method: Phaedon cochleariae Test (PHAECO S)
# as §5, §6, §7
# Cabbage plants (Brassica oleracea var. sabauda) are sprayed with an active compound formulation of the desired concentration and populated with 10 L2 larvae of the mustard beetle (Phaedon cochleariae).
# After the desired time, the kill in % is determined. 100% means that all the larvae have been killed and 0% means that none of the larvae have been killed.
smiles,measurement,setting,value
"CCS(=O)(=O)c1c(-c2nc3cc(C(F)(F)F)cnc3n2C)ncc2cc(Br)ccc12 [Example I-037, 7-Bromo-4-ethylsulfonyl-3-[3-methyl-6-(trifluoromethyl)imidazo[4,5-b]pyridin-2-yl]isoquinoline]",efficacy,[1],100%
same,pest or weed control at 4 ppm,[2],100%
same,pest or weed control at 100 g/ha,[3],100%
same,pest or weed control at 100 g/ha,[4],100%
same,Emax at 4 g/ha,[5]; 4 g of ai/ha,70%
same,Emax at 20 g/ha,[5]; 20 g of ai/ha,90%
same,Emax at 0.8 g/ha,[6],100%
same,Emax at 4 ppm,[7],90%
same,Emax at 0.16 ppm,"[8]; 288 h, infection 12 dat",80%
same,Emax at 0.16 ppm,"[8]; 456 h, infection 19 dat",70%
same,Emax at 0.16 ppm,"[9]; 120 h, infection 5 dat",80%
same,Emax at 0.16 ppm,"[9]; 288 h, infection 12 dat",60%
same,Emax at 0.8 ppm,"[9]; 288 h, 0.8 ppm, infection 12 dat",100%
